Source: US12264134B2 (Merck Sharp & Dohme LLC, priority 2018, dated 2025)

Tests used:
IDO1 [1] = molecular target: T1, IDO1 (Homo sapiens, UniProt P14902); test: IDO1 Cellular Assay in HeLa Cells Stimulated with IFNγ; assay type: cell-based; conditions: read-out: HeLa Cell Potency, IC50
IDO1 [2] = molecular target: T1, IDO1; test: IDO1 Human Whole blood Assay; assay type: cell-based; design: Human whole blood was drawn in sodium heparin coated tubes from healthy internal donors; from tissue; host or cells: human whole blood from healthy donors, stimulated with LPS and IFNγ; conditions: LPS and IFNγ stimulated, 18 h, read-out: Human Whole Blood Potency, IC50
Summary of the method: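 LC/MS/MS of kynurenine, normalized to spiked isotope-labeled standard (3 μM final), served as the readout. Beforehand, fresh human blood with compound (15 min preincubation) was stimulated overnight (18 h, 37 °C) with 100 ng/mL LPS/IFNγ. IC50 was obtained by four-parameter curve fitting.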

T1 sequence (P14902 whole entry): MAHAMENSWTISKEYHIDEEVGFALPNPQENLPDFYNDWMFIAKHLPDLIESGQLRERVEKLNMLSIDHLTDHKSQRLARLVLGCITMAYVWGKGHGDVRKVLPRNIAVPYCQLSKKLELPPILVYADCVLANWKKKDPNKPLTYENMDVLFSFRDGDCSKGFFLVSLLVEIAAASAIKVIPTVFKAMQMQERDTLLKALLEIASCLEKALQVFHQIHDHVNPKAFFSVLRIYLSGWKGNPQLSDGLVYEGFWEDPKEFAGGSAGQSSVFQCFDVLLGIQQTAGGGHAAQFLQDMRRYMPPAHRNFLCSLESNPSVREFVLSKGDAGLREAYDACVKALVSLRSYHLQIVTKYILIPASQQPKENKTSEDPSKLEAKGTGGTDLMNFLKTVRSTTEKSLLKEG

| SMILES | IC50 (IDO1 [1]) | IC50 (IDO1 [2]) |
| --- | --- | --- |
| Cc1c(Cl)cccc1N1CCN(C(=O)Cn2nc(C(=O)N3CCN(C(=O)CO)CC3)c3c2CCC(F)(F)C3)CC1 [Example 384, 1-(4-(3-chloro-2-methylphenyl)piperazin-1-yl)-2-(5,5-difluoro-3-(4-(2-hydroxyacetyl)piperazine-1-carbonyl)-4,5,6,7-tetrahydro-1H-indazol-1-yl)ethan-1-one] | 5.32 nM | 249 nM |
| Cc1cccc(N2CCN(C(=O)Cn3nc(C(=O)N4C[C@@H](C)O[C@@H](C)C4)c4c3CCC4)C3(CC3)C2)c1C [Example 391, 2-(3-((2S,6R)-2.6-dimethylmorpholine-4-carbonyl)-5,6-dihydrocyclopenta[c]pyrazol-1(4H)-yl)-1-(7-(2,3-dimethylphenyl)-4.7-diazaspiro[2.5]octan-4-yl)ethanone] | 5 nM | 1000 nM |
| Cc1c(Cl)cccc1N1CCN(C(=O)Cn2nc(C(=O)N3CCN(C(=O)CO)CC3)c3c2CCCC3)CC1 [Example 405, 1-(4-(3-chloro-2-methylphenyl)piperazin-1-yl)-2-(3-(4-(2-hydroxyacetyl)piperazine-1-carbonyl)-4,5,6,7-tetrahydro-1H-indazol-1-yl)ethanone] | 3.58 nM | 180 nM |
| Cc1c(Cl)cccc1N1CCN(C(=O)Cn2nc(C(=O)N3CC[C@@H](O)[C@@H](F)C3)c3c2CCCC3)CC1 [Example 406, 1-(4-(3-chloro-2-methylphenyl)piperazin-1-yl)-2-(3-((3S,4R)-3-fluoro-4-hydroxypiperidine-1-carbonyl)-4,5,6,7-tetrahydro-1H-indazol-1-yl)ethanone] | 3 nM | 306 nM |
| Cc1c(Cl)cccc1N1CCN(C(=O)Cn2nc(C(=O)N3CCC(O)CC3)c3c2C(F)(F)[C@H]2C[C@@H]32)CC1 [Example 448, 1-(4-(3-chloro-2-methylphenyl)piperazin-1-yl)-2-((3bR,4aS)-5,5-difluoro-3-(4-hydroxypiperidine-1-carbonyl)-3b,4,4a,5-tetrahydro-1H-cyclopropa[3,4]cyclopenta[1,2-c]pyrazol-1-yl)ethanone] | 3.54 nM | 365 nM |
| Cc1cccc(N2CCN(C(=O)Cn3nc(C(=O)N4C[C@@H](C)O[C@@H](C)C4)c4c3C3CC3C4)CC2)c1C (stereo partly drawn) [Example 449, 2-(3-((2R,6S)-2,6-dimethylmorpholine-4-carbonyl)-4,4a,5,5a-tetrahydro-1H-cyclopropa[4,5]cyclopenta[1,2-c]pyrazol-1-yl)-1-(4-(2,3-dimethylphenyl)piperazin-1-yl)ethanone] | 7.99 nM | 543 nM |
| Cc1cccc(N2CCN(C(=O)Cn3nc(C(=O)N4CCC(O)CC4)c4c3CCCC4)CC2)c1Cl [Example 450, 1-(4-(2-chloro-3-methylphenyl)piperazin-1-yl)-2-(3-(4-hydroxypiperidine-1-carbonyl)-4,5,6,7-tetrahydro-1H-indazol-1-yl)ethanone] | 1.83 nM | 152 nM |
| Cc1c(F)ccc(N2CCN(C(=O)Cn3nc(C(=O)N4CCC(O)CC4)c4c3CCCC4)CC2)c1C [Example 451, 1-(4-(4-fluoro-2,3-dimethylphenyl)piperazin-1-yl)-2-(3-(4-hydroxypiperidine-1-carbonyl)-4,5,6,7-tetrahydro-1H-indazol-1-yl)ethanone] | 1.2 nM | 36 nM |
| Cc1cccc(N2CCN(C(=O)Cn3nc(C(=O)N4CCN(CC(N)=O)CC4)c4c3CCCC4)CC2)c1C [Example 454, 2-(4-(1-(2-(4-(2,3-dimethylphenyl)piperazin-1-yl)-2-oxoethyl)-4,5,6,7-tetrahydro-1H-indazol-3-carbonyl)piperazin-1-yl) acetamide] | 2.82 nM | 68 nM |
| Cc1c(F)cccc1N1CCN(C(=O)Cn2nc(C(=O)N3CCC(OCCO)CC3)c3c2CCC3)CC1 [Example 456, 1-(4-(3-fluoro-2-methylphenyl)piperazin-1-yl)-2-(3-(4-(2-hydroxyethoxy)piperidine-1-carbonyl)-5,6-dihydrocyclopenta[c]pyrazol-1(4H)-yl) ethanone] | 21.4 nM | 102 nM |
| Cc1cccc(N2CCN(C(=O)Cn3nc(C(=O)N4CC[C@@H](O)[C@@H](F)C4)c4c3CCCC4)CC2)c1Cl [Example 457, 1-(4-(2-chloro-3-methylphenyl)piperazin-1-yl)-2-(3-((3S,4R)-3-fluoro-4-hydroxy-piperidine-1-carbonyl)-4,5,6,7-tetrahydro-1H-indazol-1-yl)ethanone] | 1.75 nM | 307 nM |
| Cc1c(F)ccc(N2CCN(C(=O)Cn3nc(C(=O)N4CC[C@@H](O)[C@@H](F)C4)c4c3CCCC4)CC2)c1C [Example 462, 1-(4-(4-fluoro-2,3-dimethylphenyl)piperazin-1-yl)-2-(3-((3S,4R)-3-fluoro-4-hydroxy-piperidine-1-carbonyl)-4,5,6,7-tetrahydro-1H-indazol-1-yl)ethanone,] | 1.32 nM | 103 nM |
| Cc1cccc(N2CCN(C(=O)Cn3nc(C(=O)N4CCC(OCCO)CC4)c4c3CCCC4)CC2)c1C [Example 463, 1-(4-(2,3-dimethylphenyl)piperazin-1-yl)-2-(3-(4-(2-hydroxyethoxy)piperidine-1-carbonyl)-4,5,6,7-tetrahydro-1H-indazol-1-yl)ethanone] | 1.37 nM | 37 nM |
| Cc1c(F)ccc(N2CCN(C(=O)Cn3nc(C(=O)N4CCC(O)CC4(C)C)c4c3CCCC4)CC2)c1C (centres unmarked) [Example 464, 1-(4-(4-fluoro-2,3-dimethylphenyl)piperazin-1-yl)-2-(3-(4-hydroxy-2,2-dimethyl-piperidine-1-carbonyl)-4,5,6,7-tetrahydro-1H-indazol-1-yl)ethanone] | 1.38 nM | 135 nM |
| Cc1c(F)ccc(N2CCN(C(=O)Cn3nc(C(=O)N4CC[C@H](O)[C@H](F)C4)c4c3CCCC4)CC2)c1C [Example 465, 1-(4-(4-fluoro-2,3-dimethylphenyl)piperazin-1-yl)-2-(3-((3R,4S)-3-fluoro-4-hydroxypiperidine-1-carbonyl)-4,5,6,7-tetrahydro-1H-indazol-1-yl)ethanone] | 1.47 nM | 87 nM |
| Cc1cccc(N2CCN(C(=O)Cn3nc(C(=O)N4CCC(O)CC4)c4c3CCCC4)CC2)c1C [Example 466, 1-(4-(2,3-dimethylphenyl)piperazin-1-yl)-2-(3-(4-hydroxy-piperidine-1-carbonyl)-4,5,6,7-tetrahydro-1H-indazol-1-yl)ethanone] | 1.69 nM | 233 nM |
| Cc1cccc(N2CCN(C(=O)Cn3nc(C(=O)N4CC[C@H](O)[C@@H](F)C4)c4c3CCCC4)CC2)c1C [Example 468, 1-(4-(2,3-dimethylphenyl)piperazin-1-yl)-2-(3-((3S,4S)-3-fluoro-4-hydroxypiperidine-1-carbonyl)-4,5,6,7-tetrahydro-1H-indazol-1-yl)ethanone] | 1.9 nM | 88 nM |
| Cc1cccc(N2CCN(C(=O)Cn3nc(C(=O)N4CCO[C@@H](CO)C4)c4c3CCCC4)CC2)c1C [Example 470, (R)-1-(4-(2,3-dimethylphenyl)piperazin-1-yl)-2-(3-(2-(hydroxymethyl)morpholine-4-carbonyl)-4,5,6,7-tetrahydro-1H-indazol-1-yl)ethanone] | 2.62 nM | 31 nM |
| CC(=O)NC1CCN(C(=O)c2nn(CC(=O)N3CCN(c4cccc(C)c4C)CC3)c3c2CCCC3)CC1 [Example 471, N-(1-(1-(2-(4-(2,3-dimethylphenyl)piperazin-1-yl)-2-oxoethyl)-4,5,6,7-tetrahydro-1H-indazole-3-carbonyl)piperidin-4-yl) acetamide] | 2.63 nM | 65 nM |
| Cc1cccc(N2CCN(C(=O)Cn3nc(C(=O)N4CC[C@@H](O)[C@H](F)C4)c4c3CCCC4)CC2)c1C [Example 472, 1-(4-(2,3-dimethylphenyl)piperazin-1-yl)-2-(3-((3R,4R)-3-fluoro-4-hydroxypiperidine-1-carbonyl)-4,5,6,7-tetrahydro-1H-indazol-1-yl)ethanone] | 3.37 nM | 208 nM |
| Cc1cccc(N2CCN(C(=O)Cn3nc(C(=O)N4CCC(NC(=O)CO)CC4)c4c3CCCC4)CC2)c1C [Example 473] | 4.16 nM | 101 nM |
| Cc1cccc(N2CCN(C(=O)Cn3nc(C(=O)N4CC[C@H](O)[C@H](F)C4)c4c3CCCC4)CC2)c1C [Example 475, 1-(4-(2,3-dimethylphenyl)piperazin-1-yl)-2-(3-((3R,4S)-3-fluoro-4-hydroxypiperidine-1-carbonyl)-4,5,6,7-tetrahydro-1H-indazol-1-yl)ethanone] | 4.26 nM | 52 nM |
| Cc1cccc(N2CCN(C(=O)Cn3nc(C(=O)N4CC[C@@H](O)[C@@H](F)C4)c4c3CCCC4)CC2)c1C [Example 476, 1-(4-(2,3-dimethylphenyl)piperazin-1-yl)-2-(3-((3S,4R)-3-fluoro-4-hydroxypiperidine-1-carbonyl)-4,5,6,7-tetrahydro-1H-indazol-1-yl)ethanone] | 5.45 nM | 164 nM |
| Cc1cccc(N2CCN(C(=O)Cn3nc(C(=O)N4CCC(O)(CF)CC4)c4c3CCCC4)CC2)c1C [Example 477, 1-(4-(2,3-dimethylphenyl)piperazin-1-yl)-2-(3-(4-(fluoromethyl)-4-hydroxypiperidine-1-carbonyl)-4,5,6,7-tetrahydro-1H-indazol-1-yl)ethanone] | 5.53 nM | 61 nM |
| Cc1cccc(N2CCN(C(=O)Cn3nc(C(=O)N4CCC(NC(=O)CCO)CC4)c4c3CCCC4)CC2)c1C [Example 478, N-(1-(1-(2-(4-(2,3-dimethylphenyl)piperazin-1-yl)-2-oxoethyl)-4,5,6,7-tetrahydro-1H-indazol-3-carbonyl)piperidin-4-yl)-3-hydroxypropanamide] | 7.15 nM | 137 nM |
